Tests used:
Assay type in all cases: cell-based
[1] = system: RPMI 1788 (B lymphocyte, normal human lymphoblastoid cells); assay: MTT assay on normal cells RPMI 1788
Description: (§1) To determine the selectivity of the synthesized compounds 7–16 toward various cancer cells and normal human cells, the anti-proliferative activity against K562 (chronic myelogenous leukemia), HL-60 (promyelocytic leukemia), MCF-7 (breast adenocarcinoma), HeLa (cervix carcinoma), HepG2 (human liver cancer), A549 (lung carcinoma), OKP-GS (renal cell carcinoma), and normal cells RPMI 1788 (B lymphocyte, the human cell line) was investigated.
(§2) Each in vitro experiment was performed at least in triplicate and the standard deviation of absorbance was less than 10% of the mean. For the in vitro assays, a stock solution (1% DMSO in the appropriate buffer with the tested compound diluted under sonication) was prepared from which several dilutions were made with the appropriate buffer.
Human cell lines were obtained from the Institute of Cytology, Russian Academy of Sciences. The cell lines studied were maintained in RPMI 1640 medium (AppliChem, Darmstadt, Germany) supplemented with 20% (HL-60, RPMI 1788) fetal calf serum (HyClone, Cramlington, UK), in DMEM (A 549) and Eagle’s MEM (AppliChem) (MCF7, HeLa) with 10% fetal calf serum (HyClone). Cells were cultivated at 37 °C in a humidified atmosphere of 5% CO2. Cellular sensitivities to synthesized compounds and standards were measured with the MTT assay. Cells were plated in triplicate in 96-well plates (10^5 cells/well for suspended cell cultures and 5 × 10^3 cells/well for monolayer cultures); on the same day (suspended cell cultures) or on the following day (monolayer cultures), compounds were added at the appropriate dilutions. […] The reference drugs were imatinib, sorafenib and nilotinib. Plates were incubated under standard conditions for 48 h. Thereafter, 10 μL MTT (Sigma) in phosphate-buffered saline (5 mg/mL) was added. The plates were incubated for an additional 4 h and 150 μL dimethylsulphoxide (DMSO) was added to dissolve the formazan crystals. The optical density was read on a HALO MPR-95 Microplate Reader (Dynamica Scientific Ltd., Melbourne, Victoria, Australia) at 570 nm. The antiproliferative effects were taken as degrees of inhibition of tumor cells (%). The average of three parallel measurements was calculated for each concentration of test compound. The degree of cell growth suppression was plotted as a function of the logarithm of the concentration. The half maximal inhibitory concentration (IC50) was determined graphically for active compounds.

[2] = system: MCF-7 (breast adenocarcinoma); assay: MTT anti-proliferative assay, MCF-7; conditions: Homo sapiens, MCF7, 48 h
Description: as §1, §2
(§3) Human cell lines were obtained from the Institute of Cytology, Russian Academy of Sciences. The cell lines studied were maintained in RPMI 1640 medium (AppliChem, Darmstadt, Germany) supplemented with 20% (HL-60, RPMI 1788) fetal calf serum (HyClone, Cramlington, UK), in DMEM (A 549) and Eagle’s MEM (AppliChem) (MCF7, HeLa) with 10% fetal calf serum (HyClone). Cells were cultivated at 37 °C in a humidified atmosphere of 5% CO2. Cellular sensitivities to synthesized compounds and standards were measured with the MTT assay. Cells were plated in triplicate in 96-well plates (10^5 cells/well for suspended cell cultures and 5 × 10^3 cells/well for monolayer cultures); on the same day (suspended cell cultures) or on the following day (monolayer cultures), compounds were added at the appropriate dilutions. Anti-proliferative activity was studied at concentrations 0.1–50.0 µM. The reference drugs were imatinib, sorafenib and nilotinib. Plates were incubated under standard conditions for 48 h. Thereafter, 10 μL MTT (Sigma) in phosphate-buffered saline (5 mg/mL) was added. The plates were incubated for an additional 4 h and 150 μL dimethylsulphoxide (DMSO) was added to dissolve the formazan crystals. The optical density was read on a HALO MPR-95 Microplate Reader (Dynamica Scientific Ltd., Melbourne, Victoria, Australia) at 570 nm. The antiproliferative effects were taken as degrees of inhibition of tumor cells (%). The average of three parallel measurements was calculated for each concentration of test compound. The degree of cell growth suppression was plotted as a function of the logarithm of the concentration. The half maximal inhibitory concentration (IC50) was determined graphically for active compounds.

[3] = system: HepG2 (human liver cancer); assay: MTT anti-proliferative assay, HepG2; conditions: 48 h
Description: as §1, §2, §3

[4] = system: K562 (chronic myelogenous leukemia); assay: MTT anti-proliferative assay, K562; conditions: Homo sapiens, 48 h
Description: For the in vitro assays, a stock solution (1% DMSO in the appropriate buffer with the tested compound diluted under sonication) was prepared from which several dilutions were made with the appropriate buffer.
Human cell lines were obtained from the Institute of Cytology, Russian Academy of Sciences. […] Plates were incubated under standard conditions for 48 h.

| Structure (SMILES) | inhibition at 100 µM [1] [%] | IC50 [2] [µM] | IC50 [3] [µM] | IC50 [4] [µM] |
| --- | --- | --- | --- | --- |
| Nc1nc(Cl)nc2c1ncn2Cc1ccc(C(=O)Nc2cccc(C(F)(F)F)c2)cc1 [Compound 15, 4-((6-Amino-2-chloro-9H-purin-9-yl)methyl)-N-(3-(trifluoromethyl)phenyl)benzamide] | 93.5 | 76.8 ± 3.25 | 88.3 ± 2.54 | 30.6 ± 0.94 |
| Cc1cn(-c2cc(NC(=O)c3ccc(Cn4cnc5c(Cl)nc(Cl)nc54)cc3)cc(C(F)(F)F)c2)cn1 [Compound 10, 4-((2,6-Dichloro-9H-purin-9-yl)methyl)-N-(3-(4-methyl-1H-imidazol-1-yl)-5-(trifluoromethyl)-phenyl)benzamide] | 98.5 | 8.1 ± 1.98 | 12.7 ± 0.7 | 2.53 ± 0.77 |
| COc1nc(Cl)nc2c1ncn2Cc1ccc(C(=O)Nc2cccc(C(F)(F)F)c2)cc1 [Compound 13, 4-((2-Chloro-6-methoxy-9H-purin-9-yl)methyl)-N-(3-(trifluoromethyl)phenyl)benzamide] | 100 | 14.2 ± 2.71 | 9.16 ± 0.78 | 29.7 ± 1.87 |
| COc1nc(Cl)nc2c1ncn2Cc1ccc(C(=O)Nc2cc(-n3cnc(C)c3)cc(C(F)(F)F)c2)cc1 [Compound 14, 4-((2-Chloro-6-methoxy-9H-purin-9-yl)methyl)-N-(3-(4-methyl-1H-imidazol-1-yl)-5-(trifluoromethyl)phenyl)benzamide] | 99.1 | 67.4 ± 3.29 | 28.5 ± 1.07 | 27.5 ± 1.19 |
| CNC(=O)c1cc(Oc2ccc(NC(=O)Nc3ccc(Cl)c(C(F)(F)F)c3)cc2)ccn1 [Sorafenib, sorafenib, reference compound] | 100 | 13.7 ± 3.08 | 8.4 ± 2.8 | 2.9 ± 0.4 |
| O=C(Nc1cccc(C(F)(F)F)c1)c1ccc(Cn2cnc3c(Cl)nc(Cl)nc32)cc1 [Compound 7, 4-((2,6-Dichloro-9H-purin-9-yl)methyl)-N-(3-(trifluoromethyl)phenyl)benzamide] | 98.9 | 12.3 ± 4.07 | 11.3 ± 1.44 | 2.27 ± 0.81 |

— publication PMC8657793, “Synthesis, In Vitro and In Silico Anticancer Activity of New 4-Methylbenzamide Derivatives Containing 2,6-Substituted Purines as Potential Protein Kinases Inhibitors” (International Journal of Molecular Sciences, 2021)
